From US20180264134A1, “A COMPOSITION OF GOLD NANOPARTICLES HAVING ANTIMICROBIAL PEPTIDES BOUND ON THEIR SURFACE FOR USE THE TREATMENT OF WOUND HEALING OR IN THE TREATMENT OF ISCHEMIC OR VASCULAR DISEASES OR IN THE TREATMENT OF SKIN DISORDERS” (priority 2015, published 2018)

Tests used:
platelets = assay: Platelet activation (CD62P expression) in whole peripheral blood; type: cell-based, human; details: positive control
Description: In an embodiment, to evaluate the hemocompatibility of Au NPs and LL37-Au NPs, the induction of platelet activation was tested. Platelet activation was measured by the flow cytometric quantification of CD62P (P-selectin) expression. CD62P is a component of the α-granule membrane of resting platelets that is expressed on the platelet surface membrane only after α-granule secretion, which occurs during platelet activation. Platelets are very sensitive to in vitro activation and aggregation, therefore, the less they are manipulated the better, for this reason the whole peripherical blood (diluted in tyrode buffer) were incubated with the NPs instead of isolating platelet rich plasma. […] As positive control it was used ADP, a platelet activator, which induced the activation of 40% of the platelets (FIG. 13). […] In contrast, HUVECs were more sensitive to soluble LL37 than HaCaT showing cytotoxic effect at a concentration of 10 μg/mL and 30 μg/mL, respectively. Furthermore, LL37-Au NPs have lower cytotoxic and impact on membrane potential than soluble peptide that for the same concentration of LL37 (up to 100 μg/mL). Differences in the cell membrane composition between HUVECs and HaCaT might account for the differences between endothelial and epithelial cells response on LL37 cytotoxicity as supported by the result of membrane potential analysis (FIG. 13d).

[1] = test system: clathrin-mediated endocytosis; assay: FITC-labelled transferrin uptake (validation of dynasore); type: cell-based, human; details: 80 μM, 30 min pre-incubation, keratinocytes
Description: In an embodiment the HaCaT keratinocyte cells were cultured on 24 well plates (1×10^6 cells/well) and inhibited by one of the following chemicals during 30 min before adding a suspension of Rhodamine-labelled NPs (15 μg/mL): dynasor (100 μM), cytochalasin D (100 μM), nocodazole (25 uM), filipin III (1 μM) and polyinosinic acid (100 μg/mL), 5-(N-ethyl-N-isopropyl)amiloride (EIPA), dextran sulfate. The inhibitor concentrations were based in values reported in literature and further validated by us to have no cytotoxic effect over the period of the assay (6 h), as confirmed by viability assay. The incubation of the cells with NPs for different times was performed in the presence of the inhibitor. As controls, HaCaT keratinocyte cells without NPs and cells incubated with NPs without inhibitor were used. At the end of each time point, cells were centrifuged at 1300 rpm, 20° C. for 5 min, washed 3 times with cold PBS and then resuspended in PBS containing 2.5% FBS (500 μL) for FACS analysis. A total of 10,000 events were obtained per measurement. To validate the inhibitory activity of dynasor it were performed uptake studies of FITC-labeled transferrin, known to selectively enter cells via clathrin-mediated endocytosis. […] Cells were then evaluated as before.

Row | Structure (SMILES) | activated platelets (platelets) [%] | internalisation of FITC-labelled transferrin [1]
1 | Nc1ncnc2c1ncn2[C@@H]1O[C@H](COP(=O)(O)OP(=O)(O)O)[C@@H](O)[C@H]1O [ADP] | 40 | 
2 | O=C(N/N=C/c1ccc(O)c(O)c1)c1cc2ccccc2cc1O [Dynasore, dynasore] |  | inhibits the internalisation of transferrin
